Measurements from patent publication US20240293587A1, “CXCR4-TARGETED DIAGNOSTIC AND THERAPEUTIC AGENTS WITH REDUCED SPECIES SELECTIVITY” (TECHNISCHE UNIVERSITÄT MÜNCHEN, priority 2018, published 2024).
Starred links: 1 amine or outer side, 2 acyl side, 3 side chain; linkers in the order of their positions; H or OH if unused. Non-standard residues stand in square brackets, D forms with d. Residues, ends and D or L forms follow the SMILES beside them. Groups on a side chain read outwards from the residue. *: point of attachment. dAla(N-(6-guanidinohexyl)) = C[C@@H](NCCCCCCNC(=N)N)C(=O)O; DOTA = O=C(O)CN1CCN(CC(=O)O)CCN(CC(=O)*)CCN(CC(=O)O)CC1; X2 = CC(=O)NCCCCNC(=N)NCCCCCCN([C@H](C)C(=O)[*:2])[*:1]; 2Nal = N[C@@H](Cc1ccc2ccccc2c1)C(=O)O; dNMeOrn = CN[C@H](CCCN)C(=O)O; 4Amb = NCc1ccc(C(=O)O)cc1

Columns and labels:
human CXCR4 (hCXCR4) [1] = molecular target: T1, human CXCR4 (hCXCR4) (Homo sapiens (Human), UniProt P61073); assay: Competition binding on Jurkat cells with [125I]R1 as radioligand; settings: 200.000 cells/sample, [125I]R1 radioligand, mean ± SD
Method: (§1) For the determination of hCXCR4-affinity, competition binding experiments were performed using Jurkat cells and [^125I]FC131 or [^125I]R1 as radioligand. Affinity to mCXCR4 and rCXCR4 was determined using Eμ-Myc1080 mouse B-cell lyphoma cells ^57 or C6 rat glioma cells, respectively, and [^125I]R1 as the radioligand.
(§2) For IC50 determination using Jurkat or Eμ-Myc1080 cells, samples containing 2×10^5 cells (or 4×10^5 cells; exact cell number used in the respective evaluations is given in the results section) in Hank's balanced salt solution (HBSS)/1% Bovine Serum Albumin (BSA) were incubated with 100.000 cpm of the respective radioligand (approx. 0.1 nM) in the presence of increasing concentrations (10^−11 to 10^−5 M) of the respective peptide of interest (n=3 per concentration). The total sample volume was 250 μL. After incubation at room temperature (RT) for 120 min with gentle agitation (200 mot/min), the tubes were centrifuged (5 min, 450g, Megafuge 1.0, Heraeus Thermo Scientific) and the supernatant was carefully removed. After washing twice with 400 μL of cold HBSS, the amount of cell-bound radioligand was quantified using a […]-counter.
(§3) IC50 values were calculated using PRISM 6 software (Graph Pad Software, San Diego, CA) using a three-parameter sigmoidal dose response curve fit.

mouse CXCR4 (mCXCR4) = mouse CXCR4 (mCXCR4) (Mus musculus (Mouse), UniProt P70658); assay: Competition binding on Eμ-Myc1080 mouse B-cell lymphoma cells with [125I]R1 as radioligand; settings: 200.000 cells/sample, [125I]R1 radioligand, mean ± SD
Method: as §1, §2, §3

human CXCR4 (hCXCR4) [2] = molecular target: T1, human CXCR4 (hCXCR4); assay: Competition binding on Jurkat cells with [125I]FC-131 as radioligand; settings: [125I]FC-131 radioligand, mean ± SD
Method: as §1, §2, §3

murine receptor (mCXCR4) = murine receptor (mCXCR4) (Mus musculus (Mouse), UniProt P70658); settings: background statement; cited from earlier work
murine receptor (mCXCR4), sequence (P70658 whole entry): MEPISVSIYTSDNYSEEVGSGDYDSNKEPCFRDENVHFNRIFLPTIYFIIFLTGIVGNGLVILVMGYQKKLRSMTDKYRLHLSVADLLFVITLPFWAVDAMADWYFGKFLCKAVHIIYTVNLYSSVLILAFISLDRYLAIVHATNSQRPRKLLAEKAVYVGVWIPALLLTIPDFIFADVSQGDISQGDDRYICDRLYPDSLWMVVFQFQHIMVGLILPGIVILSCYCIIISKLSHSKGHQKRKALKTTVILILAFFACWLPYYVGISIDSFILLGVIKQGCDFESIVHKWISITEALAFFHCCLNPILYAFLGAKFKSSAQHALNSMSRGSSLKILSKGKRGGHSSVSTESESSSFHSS

mouse CXCR4 (mCXCR4), sequence (P70658 whole entry): as above
T1 sequence (P61073 whole entry): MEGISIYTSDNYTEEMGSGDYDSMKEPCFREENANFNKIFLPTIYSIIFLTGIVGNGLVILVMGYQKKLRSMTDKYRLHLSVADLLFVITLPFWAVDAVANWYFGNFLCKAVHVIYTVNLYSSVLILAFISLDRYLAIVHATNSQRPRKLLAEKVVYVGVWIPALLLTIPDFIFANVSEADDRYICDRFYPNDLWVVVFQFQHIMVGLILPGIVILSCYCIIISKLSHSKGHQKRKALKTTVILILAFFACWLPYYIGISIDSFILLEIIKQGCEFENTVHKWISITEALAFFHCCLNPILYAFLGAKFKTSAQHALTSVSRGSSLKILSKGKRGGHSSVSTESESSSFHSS

Molecule: C[C@@H]1C(=O)N[C@@H](CCCNC(=N)N)C(=O)N[C@@H](Cc2ccc3ccccc3c2)C(=O)NCC(=O)N[C@H](Cc2ccc(O)cc2)C(=O)N1CCCCCCNC(=N)NCCCCCCNC(=O)CN1CCN(CC(=O)O)CCN(CC(=O)O)CCN(CC(=O)O)CC1 (natGa complex, metal not drawn) [P5c]
- IC50 (human CXCR4 (hCXCR4) [1]): 13 ± 2 nM
- IC50 (mouse CXCR4 (mCXCR4)): 12.7 ± 4.6 nM

Molecule: C[C@@H]1C(=O)N[C@@H](CCCNC(=N)N)C(=O)N[C@@H](Cc2ccc3ccccc3c2)C(=O)NCC(=O)N[C@H](Cc2ccc(O)cc2)C(=O)N1CCCCCCNC(=N)NCCCCCCNC(=O)CN1CCN(CC(=O)O)CCN(CC(=O)O)CCN(CC(=O)O)CC1 (natLu complex, metal not drawn) [P5d]
- IC50 (mouse CXCR4 (mCXCR4)): 17 ± 3.3 nM

Molecule: CC(=O)NCCCCNC(=N)NCCCCCCN1C(=O)[C@@H](Cc2ccc(O)cc2)NC(=O)CNC(=O)[C@H](Cc2ccc3ccccc3c2)NC(=O)[C@H](CCCNC(=N)N)NC(=O)[C@H]1C [P3, c(y-(NHex-Gua-But-Ac)a-R-Nal-G)] (cyclo([dY][X2]R[2Nal]G))
- IC50 (human CXCR4 (hCXCR4) [2]; 200.000 cells/sample): 2.1 ± 0.5 nM

Molecule: C[C@@H]1C(=O)N[C@@H](CCCNC(=N)N)C(=O)N[C@@H](Cc2ccc3ccccc3c2)C(=O)NCC(=O)N[C@H](Cc2ccc(O)cc2)C(=O)N1CCCCCCNC(=N)NCCCCCCNC(=O)CCCCC[N+]1=C(/C=C/C=C/C=C2/N(C)c3ccc(S(=O)(=O)O)cc3C2(C)C)C(C)(C)c2cc(S(=O)(=O)[O-])ccc21 [P5e, Sulfo2-Cy5-Hex-CPCR4.3]
- IC50 (human CXCR4 (hCXCR4) [1]): 156 ± 11 nM
- IC50 (mouse CXCR4 (mCXCR4)): 156 ± 7 nM

Molecule: C[C@@H]1C(=O)N[C@@H](CCCNC(=N)N)C(=O)N[C@@H](Cc2ccc3ccccc3c2)C(=O)NCC(=O)N[C@H](Cc2ccc(O)cc2)C(=O)N1CCCCCCNC(=N)NCCCCCCNC(=O)CCCCCN1/C(=C/C=C/C=C/C2=[N+](CCCCCC(=O)NCCCCCCNC(=N)NCCCCCCN3C(=O)[C@@H](Cc4ccc(O)cc4)NC(=O)CNC(=O)[C@H](Cc4ccc5ccccc5c4)NC(=O)[C@H](CCCNC(=N)N)NC(=O)[C@H]3C)c3ccc(S(=O)(=O)[O-])cc3C2(C)C)C(C)(C)c2cc(S(=O)(=O)O)ccc21 [P5f, Sulfo2-Cy5(Hex-CPCR4.3)2]
- IC50 (human CXCR4 (hCXCR4) [1]): 115 ± 39 nM
- IC50 (mouse CXCR4 (mCXCR4)): 136 ± 26 nM

Molecule: C[C@@H]1C(=O)N[C@@H](CCCNC(=N)N)C(=O)N[C@@H](Cc2ccc3ccccc3c2)C(=O)NCC(=O)N[C@H](Cc2ccc(O)cc2)C(=O)N1CCCCCCNC(=N)NCCCCCCNC(=O)CCOCCOCCOCCOCCNC(=O)CCCCC[N+]1=C(/C=C/C=C/C=C2/N(C)c3ccc(S(=O)(=O)O)cc3C2(C)C)C(C)(C)c2cc(S(=O)(=O)[O-])ccc21 [P5g, Sulfo2-Cy5-PEG4-Hex-CPCR4.3]
- IC50 (human CXCR4 (hCXCR4) [2]; 200.000 cells/sample): 40 ± 5 nM
- IC50 (human CXCR4 (hCXCR4) [1]): 91 ± 49 nM
- IC50 (mouse CXCR4 (mCXCR4)): 63 ± 23 nM

Molecule: C[C@@H]1C(=O)N[C@@H](CCCNC(=N)N)C(=O)N[C@@H](Cc2ccc3ccccc3c2)C(=O)N[C@H](CS)C(=O)N[C@H](Cc2ccc(O)cc2)C(=O)N1CCCCCCNC(=N)N [Pc0, Cyclo(ya′(hexylguanidino)Rnalc)] (cyclo([2Nal][dC][dY][dAla(N-(6-guanidinohexyl))]R))
- IC50 (human CXCR4 (hCXCR4) [2]; 400.000 cells/sample): 35 ± 2 nM

Molecule: CN1C(=O)[C@@H](Cc2ccc(O)cc2)NC(=O)CNC(=O)[C@H](Cc2ccc3ccccc3c2)NC(=O)[C@H](CCCN=C(N)N)NC(=O)[C@H]1CCCNC(=O)c1ccc(CNC(=O)CN2CCN(CC(=O)[O-])CCN(CC(=O)[O-])CCN(CC(=O)[O-])CC2)cc1.[68Ga+3] [[^68Ga]pentixafor, cyclo(D-Tyr^1-D-[NMe]Orn^2(AMBS-DOTA)-Arg^3-Nal^4-Gly^5)] (cyclo([2Nal]G[dY][dNMeOrn]([4Amb-DOTA])R))
- affinity to mCXCR4 (in words) (murine receptor (mCXCR4)): virtually no affinity

Molecule: cyclo(D-3-iodo-Tyr^1-D-[NMe]Orn^2(AMBS-DOTA)-Arg^3-Nal^4-Gly^5) [[^177Lu/^90Y]pentixather]
- affinity to mCXCR4 (in words) (murine receptor (mCXCR4)): virtually no affinity

Molecule: cyclo[ya′(hexylguanidino)RNalc(-CH2—CO—NH—CH2-(m-aryl)-CH2—NH-^natCu-DOTA)] [Pc5d]
- IC50 (human CXCR4 (hCXCR4) [2]; 400.000 cells/sample): 78 ± 5 nM

Molecule: cyclo[ya′(hexylguanidino)RNalc(-CH2—CO—NH—CH2-(m-aryl)-CH2—NH-^natLu-DOTA)] [Pc5c]
- IC50 (human CXCR4 (hCXCR4) [2]; 400.000 cells/sample): 51 ± 4 nM

Molecule: cyclo[ya′(hexyluanidino)RNalc(-CH2—CO—NH—CH2-(m-aryl)-CH2—NH-^natGa-DOTA)] [Pc5b]
- IC50 (human CXCR4 (hCXCR4) [2]; 400.000 cells/sample): 31 ± 3 nM
- IC50 (human CXCR4 (hCXCR4) [1]): 64 ± 29 nM
- IC50 (mouse CXCR4 (mCXCR4)): 63 ± 19 nM
